Laboratory results reported in the NIST ThermoML archive (doi:10.1021/je900909s).
Where “and” joins values, the source holds several entries; their conditions need not be identical. Identical values can stand only once. ± gives the expanded uncertainty stated by the source.

Experiment: cn = amount concentration of the nth substance listed, in mol/dm3
Settings: 101 kPa, Liquid, c1 = 2; for speed of sound: Frequency=4 MHz, Linear variable-path acoustic interferometer

Row | SMILES | speed of sound (298.15 K) [m/s] | mass density (298.15 K) [kg/m3] | speed of sound (303.15 K) [m/s] | mass density (303.15 K) [kg/m3] | speed of sound (308.15 K) [m/s] | mass density (308.15 K) [kg/m3] | speed of sound (313.15 K) [m/s] | mass density (313.15 K) [kg/m3] | speed of sound (318.15 K) [m/s] | mass density (318.15 K) [kg/m3] | speed of sound (323.15 K) [m/s] | mass density (323.15 K) [kg/m3] | speed of sound (328.15 K) | mass density (328.15 K) [kg/m3]
1 | [Cl-].[Na+] [sodium chloride] + O | 1614.3 ± 2.1 | 1075 ± 1.4 | 1620.9 ± 2.1 | 1073 ± 1.5 | 1627.6 ± 2.1 | 1070.7 ± 1.5 | 1633.7 ± 2.1 | 1068.3 ± 1.6 | 1637.3 ± 2.1 | 1065.7 ± 1.7 | 1640.5 ± 2.2 | 1063.1 ± 1.7 | 1643.7 ± 2.2 m/s and 1642.7 ± 2.2 m/s | 1060.2 ± 1.8
2 | O=[N+]([O-])[O-].[Na+] [sodium nitrate] + O | 1581.4 ± 2.1 | 1104.2 ± 1.5 | 1588.6 ± 2.1 | 1101.7 ± 1.5 | 1593.2 ± 2.1 | 1099 ± 1.6 | 1596.3 ± 2.1 | 1096.3 ± 1.7 | 1600.1 ± 2.1 | 1093.4 ± 1.7 | 1604.3 ± 2.1 | 1090.4 ± 1.8 | 1607.1 ± 2.1 m/s | 1087.2 ± 1.8
